Measured values: ChEMBL document CHEMBL5724558, “Image-based profiling of drug vulnerabilities in CRC organoids” (2024)
Values joined by “and” are separate entries in the source; they are usually repeats but may differ in a detail not shown here. Equal values may be shown once.

Columns and labels:
Type in all cases: functional, Homo sapiens
Set-up in all cases: dose or concentration left out as unconfirmed
Colon cancer organoid [1] = test: (§1) Image-based profiling of donated chemical probes and chemogenomic kinase set in O06 CRC organoid. Image analysis is performed on the sum area metric, and the data were normalized to the DMSO control. After imaging the organoid viability is measured using the OneGloEX Luciferase Assay System. The normalized viability data and sum area are reported.
Colon cancer organoid [2] = test: as §1, with “O09” for “O06”
Colon cancer organoid [3] = test: as §1, with “O21” for “O06”

SMILES | Cell Viability (Colon cancer organoid [1]; Replication number 1) | Cell Viability (Colon cancer organoid [1]; Replication number 2) | Cell Viability (Colon cancer organoid [2]; Replication number 1) | Cell Viability (Colon cancer organoid [2]; Replication number 2) | Cell Viability (Colon cancer organoid [3]; Replication number 1) | Cell Viability (Colon cancer organoid [3]; Replication number 2)
CCCc1cc(C)[nH]c(=O)c1CNC(=O)c1cc(-c2ccnc(N3CCN(C)CC3)c2)cc2c1cnn2C(C)C | 109.583% and 102.443% | 141.979% and 116.144% | 138.622% and 115.688% | 134.993% and 114.602% | 85.4576% and 83.4749% | 100.02% and 92.3628%
CC(C)NC(=O)N1CC[C@H](NC2=Nc3cc(F)ccc3N(CC(F)F)c3ccc(Cl)cc32)C1 | 76.3577% and 106.595% | 67.4805% and 91.0899% | 65.8757% and 85.8718% | 77.8958% and 74.4882% | 89.5308% and 79.3405% | 112.883% and 89.5415%
CNCCN1CCC(OCc2ccccc2)CC1 | 119.99% and 102.443% | 115.41% and 100.611% | 67.0161% and 91.8083% | 91.8334% and 102.344% | 118.771% and 101.11% | 99.3774% and 100.418%
CN(C)[C@H]1CN(C2CCc3cccc(F)c32)C[C@@H]1c1ccc(N2CCN(S(C)(=O)=O)CC2)cc1 (stereo partly specified) | 159.825% and 136.993% | 128.982% and 128.571% | 201.275% and 108.733% | 175.885% and 109.186% | 78.9326% and 94.0562% | 85.3871% and 90.7518%
CC1(C)C(N)=Nc2cc(OCCCN3Cc4ccc(OCCc5cn(CC(=O)N6CCC(CCN7CCCC7)CC6)nn5)cc4C3)c(OCC3CC3)cc21 | 159.496% and 131.919% | 138.652% and 115.905% | 116.392% and 79.0572% | 168.88% and 116.313% | 89.3796% and 92.2926% | 86.2982% and 98.2697%
CC1(C)C(N)=Nc2cc(OCCCCN3Cc4ccc(OCc5cn(CC(=O)N6CCC(CCN7CCCC7)CC6)nn5)cc4C3)c(OCC3CC3)cc21 | 120.738% and 74.8993% | 69.8334% and 85.077% | 129.867% and 99.2272% | 184.968% and 121.159% | 75.5552% and 109.928% | 77.1471% and 105.251%
CN1CCN(Cc2cc(NC(=O)c3ccc4c(c3)CN(c3ccccc3)CC4)cc(C(F)(F)F)c2)CC1 | 104.972% and 109.917% | 87.5694% and 92.1973% | 73.1959% and 82.4072% | 164.971% and 111.856% | 111.963% and 96.9088% | 113.098% and 109.943%
COc1ccccc1-c1cc(N2CCN(C(=O)OC(C)(C)C)CC2)c(N)nn1 | 179.264% and 129.02% | 154.723% and 113.755% | 86.2709% and 84.3895% | 173.59% and 117.453% | 94.3574% and 85.8263% | 106.056% and 125.119%
CN(C)C(=O)N1CC[C@H](NC2=Nc3cc(F)ccc3N(CC(F)F)c3ccc(Cl)cc32)C1 | 112.42% and 113.793% | 60.2365% and 60.6343% | 91.7013% and 91.0686% | 138.489% and 113.836% | 101.162% and 105.976% | 96.6139% and 109.943%
CCn1c(-c2nc3cc(C(=O)N4CCCC(N)C4)ccc3n2C)cc2ccccc21.Cl (stereo unspecified) | 210.545% and 138.685% | 140.649% and 97.743% | 117.35% and 104.328% | 180.446% and 129.427% | 104.488% and 105.813% | 105.345% and 85.3819%
O=C(CNCc1cc2ccccc2[nH]1)N[C@H]1CC[C@@H](c2nc3ccccc3[nH]2)CC1 | 105.609% and 101.043% | 76.5637% and 75.4756% | 116.461% and 89.5122% | 85.4342% and 106.091% | 73.7634% and 95.331% | 89.7869% and 102.483%
